Values quoted from earlier work as cited in US5631296A, “Drugs containing S(+)-ibuprofen” (priority 1992, dated 1997).

Assays:
serum proteins = details: stereoselective
humans = details: U.S. Pat. No. 4,851,444
[1] = test system: cyclooxygenase subunit of the enzyme prostaglandin synthease
skin inflammation = details: healthy test subjects, relative to racemate
[2] = comparatively low dosage
arthritic patients = details: daily dose well below the conventional racemate dosage

CC(C)Cc1ccc(C(C)C(=O)O)cc1 (racemic) [racemate, 2-(4-isobutylphenyl)propionic acid]
toxic effects directly attributable to accumulation of R(-) in fatty tissue (chronic administration of the racemate): no toxic effects have so far been observed
accumulation of the R(-) enantiomer in the fatty tissue (in vivo): leads to an accumulation of the R(-) enantiomer in the fatty tissue

CC(C)Cc1ccc([C@@H](C)C(=O)O)cc1 [R(-)-ibuprofen]
binding to the serum proteins (serum proteins): competing for the binding site

CC(C)Cc1ccc([C@H](C)C(=O)O)cc1 [S(+)-ibuprofen]
analgesic action (rhesus monkeys): stronger analgesic action
onset and intensity of analgesic effect versus identical amounts of the racemate (humans): starts more rapidly and is more intense
inhibition of prostaglandin synthesis (mechanism of action found in vitro) [1]: found in vitro only for the S(+) enantiomer
binding to the serum proteins (serum proteins): competing for the binding site
dose-effect curve in skin inflammation model (skin inflammation): shifted towards lower dosage relative to that of the racemate
therapeutic action relative to the racemate [2]: the same therapeutic action as the racemate
therapeutic effect in arthritic patients (arthritic patients): good therapeutic effect
